The first test has as its target GDP-bound KRAS protein (aa 1-169), containing both G12C and C118A amino acid substitutions (Homo sapiens (Human), UniProt P01116, C118A/G12C). Put plainly: Coupled nucleotide exchange assay (SOS-mediated nucleotide exchange, AlphaScreen). It is filed as biochemical. To be noted: 5 min compound pre-incubation. In general terms: Alpha assays give light when donor and acceptor beads are brought close together.
Sequence of GDP-bound KRAS protein (aa 1-169), containing both G12C and C118A amino acid substitutions (P01116 other isoform, or with tags, fused parts or gaps G12C/C118A): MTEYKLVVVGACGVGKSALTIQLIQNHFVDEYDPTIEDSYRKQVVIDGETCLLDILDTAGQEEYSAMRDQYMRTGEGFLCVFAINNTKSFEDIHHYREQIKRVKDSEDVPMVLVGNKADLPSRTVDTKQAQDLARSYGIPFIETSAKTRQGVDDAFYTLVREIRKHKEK
In the case of `[2H]C1([2H])N(C(=O)C=C)C([2H])([2H])C([2H])([2H])N(c2nc(=O)n(-c3c(C)ccnc3C(C)C)c3nc(-c4c(O)cccc4F)c(F)cc23)C1([2H])[2H]` (atropisomer, axis not shown; (M)) [Example 72-22, (M)-6-Fluoro-7-(2-fluoro-6-hydroxy-phenyl)-1-(2-isopropyl-4-methyl-3-pyridyl)-4-(2,2,3,3,5,5,6,6-octadeuterio-4-prop-2-enoyl-piperazin-1-yl)pyrido[2,3-d]pyrimidin-2-one], the “Coupled exchange IC50 (5 min; μM)” value is 0.408 µM.

Staying with this test, now noted: read-out: Coupled exchange IC50 (5 min; μM); 5 min compound pre-incubation.
Take `C=CC(=O)N1C[C@H](C)N(c2nc(=O)n(-c3c(C)ccnc3C(C)C)c3nc(N4CCCC4C(F)F)c(Cl)cc23)C[C@H]1C` (atropisomer, axis not shown; (M)) [Example 69-10, (M)-6-Chloro-7-[2-(difluoromethyl)pyrrolidin-1-yl]-4-[(2S,5R)-2,5-dimethyl-4-prop-2-enoyl-piperazin-1-yl]-1-(2-isopropyl-4-methyl-3-pyridyl)pyrido[2,3-d]pyrimidin-2-one]: the concentration for half-maximal inhibition (IC50) is 11 µM.

Consider `C=CC(=O)N1C[C@H](C)N(c2nc(=O)n(-c3c(C)ccnc3C(C)C)c3nc(N4CCCCC4)c(Cl)cc23)C[C@H]1C` (atropisomer, axis not shown; (M)) [Example 69-11, (M)-6-Chloro-4-[(2S,5R)-2,5-dimethyl-4-prop-2-enoyl-piperazin-1-yl]-1-(2-isopropyl-4-methyl-3-pyridyl)-7-(1-piperidyl)pyrido[2,3-d]pyrimidin-2-one], for which the IC50 was 1.14 µM.

As for `C=CC(=O)N1C[C@H](C)N(c2nc(=O)n(-c3c(C)ccnc3C(C)C)c3nc(-c4ccccc4P(C)(C)=O)c(F)cc23)C[C@H]1C` (atropisomer, axis not shown; (M)) [Example 72-23, (M)-7-(2-Dimethylphosphorylphenyl)-4-[(2S,5R)-2,5-dimethyl-4-prop-2-enoyl-piperazin-1-yl]-6-fluoro-1-(2-isopropyl-4-methyl-3-pyridyl)pyrido[2,3-d]pyrimidin-2-one], the half-inhibitory concentration (IC50) was determined as 0.647 µM. As to `C=CC(=O)N1[C@@H]2CC[C@H]1CN(c1nc(=O)n(-c3c(C)ccnc3C(C)C)c3nc(-c4ccccc4F)c(Cl)cc13)C2` (atropisomer, axis not shown; (M)) [Example 79-10, (M)-6-Chloro-7-(2-fluorophenyl)-1-(2-isopropyl-4-methyl-3-pyridyl)-4-[(1S,5R)-8-prop-2-enoyl-3,8-diazabicyclo[3.2.1]octan-3-yl]pyrido[2,3-d]pyrimidin-2-one], the concentration for half-maximal inhibition (IC50) was 2.78 µM. For the molecule `C=CC(=O)N1C[C@@H]2CC[C@H]1CN2c1nc(=O)n(-c2c(C)ccnc2C(C)C)c2nc(-c3ccccc3F)c(Cl)cc12` (atropisomer, axis not shown; (M)) [Example 79-11, (M)-6-Chloro-7-(2-fluorophenyl)-1-(2-isopropyl-4-methyl-3-pyridyl)-4-[(1S,4S)-5-prop-2-enoyl-2,5-diazabicyclo[2.2.2]octan-2-yl]pyrido[2,3-d]pyrimidin-2-one], the IC50 came to 26.7 µM. Same read-out and setting: under `C=CC(=O)N1C[C@H]2CCC[C@@H](C1)N2c1nc(=O)n(-c2c(C)ccnc2C(C)C)c2nc(-c3ccccc3F)c(Cl)cc12` (atropisomer, axis not shown; (M)) [Example 79-12, (M)-6-Chloro-7-(2-fluorophenyl)-1-(2-isopropyl-4-methyl-3-pyridyl)-4-[(1S,5R)-3-prop-2-enoyl-3,9-diazabicyclo[3.3.1]nonan-9-yl]pyrido[2,3-d]pyrimidin-2-one] stands 5.46 µM; under `C=CC(=O)N1C[C@H](C)N(c2nc(=O)n(-c3c(C)ccnc3C(C)C)c3nc(C=C(C)C)c(Cl)cc23)C[C@H]1C` (atropisomer, axis not shown; (M)) [Example 92-8, (M)-6-Chloro-4-[(2S,5R)-2,5-dimethyl-4-prop-2-enoyl-piperazin-1-yl]-1-(2-isopropyl-4-methyl-3-pyridyl)-7-(2-methylprop-1-enyl)pyrido[2,3-d]pyrimidin-2-one], 0.985 µM; under `C=CC(=O)N1C[C@H](C)N(c2nc(=O)n(-c3c(C)ccnc3C(C)C)c3nc(C4=CCOCC4)c(Cl)cc23)C[C@H]1C` (atropisomer, axis not shown; (M)) [Example 92-9, (M)-6-Chloro-7-(3,6-dihydro-2H-pyran-4-yl)-4-[(2S,5R)-2,5-dimethyl-4-prop-2-enoyl-piperazin-1-yl]-1-(2-isopropyl-4-methyl-3-pyridyl)pyrido [2,3-d]pyrimidin-2-one], 8.53 µM. Still for that read-out and setting: under `C=CC(=O)N1C[C@H](C)N(c2nc(=O)n(-c3c(C)ccnc3C(C)C)c3nc(-c4cccc5c4NC(=O)C5)c(Cl)cc23)C[C@H]1C` (atropisomer, axis not shown; (M)) [Example 92-20, (M)-6-Chloro-4-[(2S,5R)-2,5-dimethyl-4-prop-2-enoyl-piperazin-1-yl]-1-(2-isopropyl-4-methyl-3-pyridyl)-7-(2-oxoindolin-7-yl)pyrido[2,3-d]pyrimidin-2-one] stands 0.403 µM.

In the case of `C=CC(=O)N1C[C@H](C)N(c2nc(=O)n(-c3c(C)ccnc3C(C)C)c3[nH]c(=O)c(Cl)cc23)C[C@H]1C` (atropisomer, axis not shown; (M)) [Example 92-22, (M)-6-Chloro-4-[(2S,5R)-2,5-dimethyl-4-prop-2-enoyl-piperazin-1-yl]-1-(2-isopropyl-4-methyl-3-pyridyl)-8H-pyrido[2,3-d]pyrimidine-2,7-dione], the concentration for half-maximal inhibition (IC50) was 2.94 µM. Still for that read-out and setting: under `C=CC(=O)N1C[C@H](C)N(c2nc(=O)n(-c3c(C)ccnc3C(C)C)c3nc(-c4cccc5cn[nH]c45)c(Cl)cc23)C[C@H]1C` (atropisomer, axis not shown; (M)) [Example 92-30, (M)-6-Chloro-4-[(2S,5R)-2,5-dimethyl-4-prop-2-enoyl-piperazin-1-yl]-7-(1H-indazol-7-yl)-1-(2-isopropyl-4-methyl-3-pyridyl)pyrido [2,3-d]pyrimidin-2-one] stands 0.479 µM; under `C=CC(=O)N1C[C@H](C)N(c2nc(=O)n(-c3c(C)ccnc3C(C)C)c3nc(-c4ccccc4NC(=O)C(C)(C)C)c(Cl)cc23)C[C@H]1C` (atropisomer, axis not shown; (M)) [Example 92-35, (M)-N-[2-[6-Chloro-4-[(2S,5R)-2,5-dimethyl-4-prop-2-enoyl-piperazin-1-yl]-1-(2-isopropyl-4-methyl-3-pyridyl)-2-oxo-pyrido[2,3-d]pyrimidin-7-yl]phenyl]-2,2-dimethyl-propanamide], 0.758 µM; under `C=CC(=O)N1C[C@H](C)N(c2nc(=O)n(-c3c(C)ccnc3C(C)C)c3nc(-c4ccsc4)c(Cl)cc23)C[C@H]1C` (atropisomer, axis not shown; (M)) [Example 92-50, (M)-6-Chloro-4-[(2S,5R)-2,5-dimethyl-4-prop-2-enoyl-piperazin-1-yl]-1-(2-isopropyl-4-methyl-3-pyridyl)-7-(3-thienyl)pyrido[2,3-d]pyrimidin-2-one], 1.1 µM. Still for that read-out and setting: under `C=CC(=O)N1C[C@H](C)N(c2nc(=O)n(-c3c(C)ccnc3C(C)C)c3nc(-c4cccc(C(F)(F)F)c4)c(Cl)cc23)C[C@H]1C` (atropisomer, axis not shown; (M)) [Example 92-56, (M)-6-Chloro-4-[(2S,5R)-2,5-dimethyl-4-prop-2-enoyl-piperazin-1-yl]-1-(2-isopropyl-4-methyl-3-pyridyl)-7-[3-(trifluoromethyl)phenyl]pyrido [2,3-d]pyrimidin-2-one] stands 0.591 µM; under `C=CC(=O)N1C[C@H](C)N(c2nc(=O)n(-c3c(C)ccnc3C(C)C)c3nc(-c4cncnc4C(C)C)c(Cl)cc23)C[C@H]1C` (atropisomer, axis not shown; (M)) [Example 92-68, (M)-6-Chloro-4-[(2S,5R)-2,5-dimethyl-4-prop-2-enoyl-piperazin-1-yl]-1-(2-isopropyl-4-methyl-3-pyridyl)-7-(4-isopropylpy-rimidin-5-yl)pyrido[2,3-d]pyrimidin-2-one], 3.31 µM; under `C=CC(=O)N1C[C@H](C)N(c2nc(=O)n(-c3c(C)ccnc3C(C)C)c3nc(-c4cccnc4C4CC4)c(Cl)cc23)C[C@H]1C` (atropisomer, axis not shown; (M)) [Example 92-69, (M)-6-Chloro-7-(2-cyclopropyl-3-pyridyl)-4-[(2S,5R)-2,5-dimethyl-4-prop-2-enoyl-piperazin-1-yl]-1-(2-isopropyl-4-methyl-3-pyridyl)pyrido [2,3-d]pyrimidin-2-one], 1.36 µM. For `C=CC(=O)N1C[C@H](C)N(c2nc(=O)n(-c3c(C)ccnc3C(C)C)c3nc(-c4cc(OC)cc5ccccc45)c(Cl)cc23)C[C@H]1C` (atropisomer, axis not shown; (M)) [Example 92-70, (M)-6-Chloro-4-[(2S,5R)-2,5-dimethyl-4-prop-2-enoyl-piperazin-1-yl]-1-(2-isopropyl-4-methyl-3-pyridyl)-7-(3-methoxy-1-naphthyl)pyrido [2,3-d]pyrimidin-2-one], the 50% inhibitory concentration (IC50) was found to be 0.6 µM. As to `C=CC(=O)N1C[C@H](C)N(c2nc(=O)n(-c3c(C)ccnc3C(C)C)c3nc(-c4nc(C)sc4C)c(Cl)cc23)C[C@H]1C` (atropisomer, axis not shown; (M)) [Example 92-71, (M)-6-Chloro-4-[(2S,5R)-2,5-dimethyl-4-prop-2-enoyl-piperazin-1-yl]-7-(2,5-dimethylthiazol-4-yl)-1-(2-isopropyl-4-methyl-3-pyridyl)pyrido [2,3-d]pyrimidin-2-one], the 50% inhibitory concentration (IC50) stood at 1.36 µM. Same read-out and setting: under `C=CC(=O)N1C[C@H](C)N(c2nc(=O)n(-c3c(C)ccnc3C(C)C)c3nc(-c4scnc4C)c(Cl)cc23)C[C@H]1C` (atropisomer, axis not shown; (M)) [Example 92-72, (M)-6-Chloro-4-[(2S,5R)-2,5-dimethyl-4-prop-2-enoyl-piperazin-1-yl]-1-(2-isopropyl-4-methyl-3-pyridyl)-7-(4-methylthiazol-5-yl)pyrido[2,3-d]pyrimidin-2-one] stands 8.87 µM.

The IC50 is the concentration at which inhibition is half-maximal.

The values are drawn from patent publication US11285156B2, “Substituted piperazines as KRAS G12C inhibitors” (Amgen Inc., priority 2018, dated 2022).
